The text below walks through data of patent US4898870A, “Pyrroloquinoline quinone compounds useful as an enzyme inhibitor” (Sogo Pharmaceutical Company Limited, priority 1986, dated 1990).

Several values for one entry are separate records, joined by “and”; a condition that tells them apart may be missing. Identical values can stand only once. Counter-ions that a name gives are not always drawn.

Format in all cases: biochemical
Test [1] addresses T1, rat lens aldose reductase (Rattus norvegicus, UniProt P07943).
T1 construct: A homogenate of rat lens was used; from tissue; host or cells: rat lens (crude homogenate; in later tests the 3,000 rpm supernatant)
The test is described as follows: Inhibition of rat lens aldose reductase (NADPH2 OD decrease at 340 nm). The following applies: for inhibition at 10 µM: inhibitor 10^-5 M/reaction soln.; for inhibition at 1 µM: inhibitor 10^-6 M/reaction soln.; for IC50: rat lens homogenate, substrate dl-glyceraldehyde; for IC100: rat lens, read-out: concentration inhibiting the activity by 100%. Here is the method: A homogenate of rat lens was used and the activity of aldose reductase was measured by the method of Kinoshita, et. al. (Kinoshita J. H., et al, Metabolism, 28, 462-469, (1979)).
(§1) Specifically reaction was started by adding dl-glyceraldehyde as a substrate to a reaction solution containing rat lens homogenate, Li2 SO4, NADPH2 and inhibitor, and the enzyme activity was measured by the decrease of the optical absorption of NADPH2 (optical density: OD) at 340 nm for 5 min. The solution with no addition of the substrate was used for the blank OD. The inhibiting ratio for the aldose reductase reaction by the inhibitor was determined by the following equation: [formula]
(§2) To a reaction solution containing the chick lens homogenate, Li2 SO4, NADPH2 and an inhibitor, was added dlglyceraldehyde as substrate to start the reaction, and the enzymatic activity was determined by measuring the decrease in optical density (OD) of NADPH2 at 340 nm after five minutes. A solution with no substrate added was used for the blank test. The inhibition rate against the aldose reductase reaction was calculated from the following equation: [formula]
A homogenate of rat lens was centrifuged for four minutes at 3,000 rpm under cooling, the supernatant was collected as an enzyme solution, and the inhibitory action of PQQ·H2 against aldose reductase was measured in the same way as in Test Example 4.
An enzyme solution was prepared from rat lens in the same manner as in Test Example 10, and the inhibitory action of PQQ·3Me against rat lens aldose reductase was measured in the same way as in Test Example 4.

In test [2] the target is T2, bovine lens aldose reductase (Bos taurus, UniProt P16116).
T2 construct: A homogenate of bovine lens was centrifuged for ten minutes at 20,000 rpm under cooling; from tissue; host or cells: bovine lens (20,000 rpm supernatant of homogenate)
The test is described as follows: Inhibition of bovine lens aldose reductase. The settings on record: for IC50: bovine lens enzyme; for IC100: bovine lens, read-out: concentration inhibiting the activity by 100%; for inhibition at 4 µM: inhibitor 4 × 10^-6 M/reaction soln.; for inhibition at 6 µM: inhibitor 6 × 10^-6 M/reaction soln.; for inhibition at 8 µM: inhibitor 8 × 10^-6 M/reaction soln.; for inhibition at 10 µM: inhibitor 10^-5 M/reaction soln.; for inhibition at 1 µM: inhibitor 10^-6 M/reaction soln.; for inhibition at 0.1 µM: inhibitor 10^-7 M/reaction soln. The procedure:
as §1
The determination of enzyme activity was same as in Test Example 1 except enzyme source was bovine lens.
as §2
A homogenate of bovine lens was centrifuged for ten minutes at 20,000 rpm under cooling, the supernatant was collected as an enzyme solution, and the inhibitory action of PQQ against aldose reductase was measured in the same way as in Test Example 4.
A homogenate of bovine lens was centrifuged for ten minutes at 20,000 rpm under cooling, the supernatant was collected as an enzyme solution, and the inhibitory action of PQQ·H2 against bovine lens aldose reductase was measured in the same way as in Test Example 4.
An enzyme solution was prepared from chick lens in the same manner as in Test Example 9, and the inhibitory action of PQQ·3Me against bovine lens aldose reductase was measured in the same way as in Test Example 4.

Test [3] relates to chick lens aldose reductase. Briefly: Inhibition of chick lens aldose reductase. The following applies: for concentration inhibiting the activity by 100%: chick lens; for IC50: chick lens homogenate, read-out: concentration inhibiting the aldose reductase activity by 50%. The procedure:
The activity of aldose reductase was measured according to the method of Kinoshita et al. [Metabolism, 28, 462-469 (1979)] using a homogenate of chick lens.
as §2
An enzyme solution was prepared from chick lens in the same manner as in Test Example 4, and the inhibitory action of PQQ·H2 against aldose reductase was measured in the same way as in Test Example 4.
An enzyme solution was prepared from chick lens in the same manner as in Test Example 4, and the inhibitory action of PQQ·3Me against aldose reductase was measured in the same way as in Test Example 4.

Test [4] deals with T3, human placental aldose reductase (Homo sapiens, UniProt P15121).
T3 construct: An enzyme solution was prepared from human placenta; from tissue; host or cells: human placenta
Briefly: Inhibition of human placental aldose reductase. The following applies: for IC50: human placenta enzyme; for IC100: read-out: concentration inhibiting the activity by 100%. The procedure:
as §1
The determination of enzyme activity was same as in Test Example 1 except enzyme source was human placenta.
as §2
An enzyme solution was prepared from human placenta, and the inhibitory action of PQQ·2K against human placental aldose reductase was measured in the same way as in Test Example 4.
An enzyme solution was prepared from human placenta, and the inhibitory action of PQQ·3Me against human placental aldose reductase was measured in the same way as in Test Example 4.
An enzyme solution was prepared from human placenta, and the inhibitory action of PQQ·2Me.Et against human placental aldose reductase was measured in the same way as in Test Example 4.

Where [5] appears, read: inhibitor 10^-4 M/reaction soln., read-out: Inhibition Rate.
[6] abbreviates: inhibitor 10^-5 M/reaction soln.
Where [7] appears, read: inhibitor 10^-6 M/reaction soln.
The mark [8] stands for this setting: inhibitor 10^-7 M/reaction soln.
[9] abbreviates: inhibitor 2 × 10^-6 M/reaction soln., read-out: Inhibition Rate.
Setting [10] is: inhibitor 4 × 10^-6 M/reaction soln., read-out: Inhibition Rate.

Consider `O=C(O)c1cc(C(=O)O)c2c(n1)c(O)c(O)c1cc(C(=O)O)[nH]c12` [PQQ.H2, PQQ reduced form], for which, in test [1] (inhibitor 2 × 10^-5 M/reaction soln., read-out: Inhibition Rate), the inhibition at 20 µM was determined as 100%. The results for the inhibition at 10 µM in test [1] (read-out: Inhibition Rate) and in test [2] (read-out: Inhibition Rate) were 59.5% and 100%, respectively. Further, the inhibition at 1 µM turned out to be 15.1% in test [1] (read-out: Inhibition Rate) and 0% in test [2] (read-out: Inhibition Rate). The “Inhibition Rate” value in test [1] (inhibitor concentration not printed (first line of Table 11)) was found to be 0%; in test [3] (inhibitor 2 × 10^-5 M/reaction soln.), 68.4%; in test [3] (inhibitor 4 × 10^-5 M/reaction soln.) it was 92.8%; in test [3] (inhibitor 6 × 10^-5 M/reaction soln.) it was 100%; in test [3] (inhibitor 8 × 10^-5 M/reaction soln.) it was 100%; in test [3] (inhibitor 10^-4 M/reaction soln.), 100%. Further, the entries for the “Inhibition Rate” value in test [3] (setting [6]), in test [3] (setting [7]) and in test [3] (setting [8]) were 62.1%, 31.8% and 0%, respectively. Also, the IC50 turned out to be 8.5 µM in test [1], 5 µM in test [2] and 6 µM in test [3]. The IC100 in test [1] worked out at 20 µM; in test [2], 8 µM. Further, the inhibition at 4 µM in test [2] (read-out: Inhibition Rate) came to 27.8%. Moreover, the inhibition at 6 µM in test [2] (read-out: Inhibition Rate) worked out at 89.9%. For the same compound, the inhibition at 8 µM in test [2] (read-out: Inhibition Rate) came to 100%. For the same compound, in test [2] (setting [5]), the inhibition at 100 µM is 100%. Also, the inhibition at 0.1 µM in test [2] (read-out: Inhibition Rate) was 0%. The “concentration inhibiting the activity by 100%” value in test [3] was 60 µM.

As to `O=C(O)c1cc(C(=O)O)c2c(n1)C(=O)C(=O)c1cc(C(=O)O)[nH]c1-2` [PQQ.2K, PQQ dipotassium salt], the IC50 in test [1] is 2 µM; in test [4] it was 1920 nM and 1900 nM. Besides, the IC100 in test [4] (human placenta) was found to be 4 µM. Further, in test [4] (setting [9]), the inhibition at 2 µM is 51.4%. For the same compound, the inhibition at 3 µM in test [4] (inhibitor 3 × 10^-6 M/reaction soln., read-out: Inhibition Rate) came to 83.3%. Also, in test [4] (setting [10]), the inhibition at 4 µM came out at 100%. In addition, the inhibition at 0.9 µM in test [4] (inhibitor 9 × 10^-7 M/reaction soln., read-out: Inhibition Rate) stood at 8.3%. Besides, the inhibition at 1 µM in test [4] (inhibitor 10^-6 M/reaction soln., read-out: Inhibition Rate) was 26.9%.

PQQ dimethyl ethyl ester [PQQ.2Me.Et]: the “concentration inhibiting the activity by 100%” value in test [4] (human placenta) stood at 2.5 µM. In test [4], this compound yielded an IC50 of 420 nM. Also, the “Inhibition Rate” value in test [4] (inhibitor 1.25 × 10^-6 M/reaction soln.) was determined as 97.1%; in test [4] (inhibitor 2 × 10^-7 M/reaction soln.) it was 17.6%; in test [4] (inhibitor 2.5 × 10^-6 M/reaction soln.) it was 100%; in test [4] (inhibitor 3 × 10^-7 M/reaction soln.), 29.3%; in test [4] (inhibitor 5 × 10^-7 M/reaction soln.), 59.0%; in test [4] (setting [7]), 91.2%. Besides, in test [4] (setting [8]), the “Inhibition Rate” value was 0%.

`COC(=O)c1cc(C(=O)OC)c2c(n1)C(=O)C(=O)c1cc(C(=O)OC)[nH]c1-2` [PQQ.3Me, PQQ trimethyl ester]: the inhibition at 2 µM is 3.3% in test [1] (setting [9]) and 22.6% in test [2] (setting [9]). Moreover, the inhibition at 4 µM in test [1] (setting [10]) came out at 23.5%; in test [2] (read-out: Inhibition Rate), 45.8%. For the same compound, the inhibition at 6 µM in test [1] (inhibitor 6 × 10^-6 M/reaction soln., read-out: Inhibition Rate) was 54.4%; in test [2] (read-out: Inhibition Rate) it was 100%. Also, the inhibition at 8 µM in test [1] (inhibitor 8 × 10^-6 M/reaction soln., read-out: Inhibition Rate) worked out at 98.9%; in test [2] (read-out: Inhibition Rate), 100%. The inhibition at 100 µM in test [1] (setting [5]) was 100%. The inhibition at 10 µM in test [1] (read-out: Inhibition Rate) and in test [2] (read-out: Inhibition Rate) was 100% in each case. Also, the inhibition at 1 µM in test [1] (read-out: Inhibition Rate) stood at 0%; in test [2] (read-out: Inhibition Rate), 10%. Besides, the IC50 in test [1] came out at 5.8 µM; in test [2], 4.2 µM; in test [4] it was 390 nM; in test [3] it was 3 µM. Also, the IC100 in test [1] was 10 µM; in test [2] it was 6 µM; in test [4] (human placenta), 2.5 µM. Besides, the “concentrations at which effective” value in test [2] (bovine lens (Table 13)) was ≥ 10^-6 M. Moreover, the inhibition at 0.1 µM in test [2] (read-out: Inhibition Rate) came to 0%; in test [4] (inhibitor 10^-7 M/reaction soln., read-out: Inhibition Rate), 10%. The inhibition at 0.2 µM in test [4] (inhibitor 2 × 10^-7 M/reaction soln., read-out: Inhibition Rate) was found to be 15%. For the same compound, the inhibition at 2.5 µM in test [4] (inhibitor 2.5 × 10^-6 M/reaction soln., read-out: Inhibition Rate) came out at 100%. For the same compound, the inhibition at 0.3 µM in test [4] (inhibitor 3 × 10^-7 M/reaction soln., read-out: Inhibition Rate) was 34.4%. Moreover, the inhibition at 0.4 µM in test [4] (inhibitor 4 × 10^-7 M/reaction soln., read-out: Inhibition Rate) worked out at 50.6%. For the same compound, the inhibition at 5 µM in test [4] (inhibitor 5 × 10^-6 M/reaction soln., read-out: Inhibition Rate) was found to be 100%. In test [4] (inhibitor 5 × 10^-7 M/reaction soln., read-out: Inhibition Rate), the inhibition at 0.5 µM turned out to be 63.9%. Moreover, the inhibition at 0.08 µM in test [4] (inhibitor 8 × 10^-8 M/reaction soln., read-out: Inhibition Rate) amounted to 1.7%. Also, in test [3], the “concentration inhibiting the activity by 100%” value amounted to 8 µM. Further, the “Inhibition Rate” value worked out at 30.0% in test [3] (inhibitor 2 × 10^-6 M/reaction soln.); 77.1% in test [3] (inhibitor 4 × 10^-6 M/reaction soln.); 87.1% in test [3] (inhibitor 6 × 10^-6 M/reaction soln.); 100% in test [3] (inhibitor 8 × 10^-6 M/reaction soln.); 100% in test [3] (setting [6]); 0% in test [3] (setting [7]).

A word on the inhibition: it is the percentage by which the read-out fell short of the control.
